The record followed here is publication PMC6271041, “Synthesis and Biological Evaluation of Novel 2-Arylalkylthio-5-iodine-6-substituted-benzyl-pyrimidine-4(3H)-ones as Potent HIV-1 Non-Nucleoside Reverse Transcriptase Inhibitors” (Molecules, 2014).

The target of one series is T1, HIV-1 RT (Human immunodeficiency virus type 1 group M subtype B, UniProt P04585).
T1 construct: The biotin-dUTP was incorporated by reverse transcriptase (Sigma, St. Louis, MO, USA); purchased Sigma
As to the kind of experiment: Inhibitory activity against HIV-1 RT (biotin-dUTP incorporation, colorimetric). It counts as biochemical. The conditions noted are these: for IC50: mean of three separate experiments, variation less than 15%. On the procedure:
Oligo(dT) (TaKaRa Co., Otsu, Japan) was immobilized via its 5'-terminal phosphate to Covalink-NH microtiter plates (NUNC Co., Roskilde, Denmark). The biotin-dUTP was incorporated by reverse transcriptase (Sigma, St. Louis, MO, USA). Briefly, a serial concentration of inhibitor was added to the mixture, which contained 50 mmol/L Tris-HCl (pH 8.3), 3 mmol/L MgCl2, 75 mmol/L KCl, 5 mmol/L DTT, 0.13 mg/mL BSA, 10 μg/mL poly (A), 0.75 μM biotin-11-Dutp, 1.5 μM dTTP and HIV-1 RT. After incubation at 37 °C for 1h, washing buffer, which contained 50 mmol/L Tris-HCl (pH 7.5), 0.15 mol/L NaCl, 0.05 mmol/L MgCl2 and 0.02% Tween20, was used to wash the plate. Then each well of the plate was added […] 1% BSA and incubated at room temperature for another 30 min. The plate was washed with the same buffer for 3 times. Before further incubation at 37 °C for 1 h, 50 μL of alkaline phosphatase streptavidin (SA-ALP) solution (100 ng/mL) was added to each well and washed again as above. Finally, 50 μL of p-nitrophenyl phosphate, disodium (PNPP, 1 mg/mL, pH 9.5) was added and incubated at 37 °C for 30 min. 0.5 mol/L NaOH was added to stop the reaction and a colorimetric streptavidin-alkaline phosphatase reporter system was used to detect and quantify the result.

The next series deals with HIV-1SF33. Description: Inhibitory activity on HIV-1SF33 infection in TZM-bl cells (p24 ELISA). It counts as cell-based. The conditions noted are these: Human immunodeficiency virus 1, 168 h, read-out: EC50 /SF33, concentration inhibiting 50% viral replication, HIV-1SF33 infection in TZM-bl cell line, 7 days. On the procedure: TZM-bl cells, HIV-1SF33 were obtained from the NIH AIDS Research and Reference Reagent Program (Germantown, MD, USA). The inhibitory activity of the compounds on infection by a laboratory-adapted HIV-1 strain SF33 was tested in TZM-bl cells. Briefly, TZM-bl cells (4 × 10^4/well) were infected by addition of 200 TCID50 of HIV-1, followed by incubation for 2 h at 37 °C before addition of compounds at serial dilutions.
On the technique in general: ELISA stands for enzyme-linked immunosorbent assay.

The term melting point denotes the temperature of the solid-liquid transition. By IC50 is commonly meant the concentration needed to halve the response being measured. Read a low IC50 as higher potency. For the compound `Cc1cc(C)cc(Cc2cc(=O)[nH]c(SCCc3ccc([N+](=O)[O-])cc3)n2)c1` [7n, 2-(4-Nitrophenethylthio)-6-(3,5-dimethylbenzyl)uracil], the melting point fell in the range of 212 to 215 °C. Also, on HIV-1 RT, the IC50 is 1.4 µM. Also, the EC50 with HIV-1SF33 worked out at 6.12 µM.
On to `CC(=O)c1ccc(CSc2nc(Cc3cc(C)cc(C)c3)c(I)c(=O)[nH]2)cc1` [8h, 2-(4-Acetylbenzylthio)-5-iodine-6-(3,5-Dimethylbenzyl)uracil], for which the melting point lay within 201 to 203 °C. At HIV-1 RT, the “fold more active compared to nevirapine (HIV-1 RT IC50)” value was “about 10 fold” and the IC50 stood at 0.41 µM. The EC50 in the series with HIV-1SF33 is 1.06 µM.
`Cc1cc(C)cc(Cc2nc(SCCOc3ccc([N+](=O)[O-])cc3)[nH]c(=O)c2I)c1` [8q] registered a melting point of 215 to 218 °C. Moreover, the IC50 at HIV-1 RT came to 1.31 µM. In addition, in the series with HIV-1SF33, the EC50 was 9.44 µM.
On the same counts, the results for `O=c1[nH]c(SCCOc2ccc([N+](=O)[O-])cc2)nc(Cc2cc(F)cc(F)c2)c1I` [8r, 2-(2-(4-Nitrophenoxy)ethylthio)-5-Iodine-6-(3,5-difluorobenzyl)uracil] are 224 to 226 °C, 2.56 µM and 4.1 µM.
In the same order, the values of `Cc1cc(C)cc(Cc2cc(=O)[nH]c(SCCOc3ccc([N+](=O)[O-])cc3)n2)c1` [7q, 2-(2-(4-Nitrophenoxy)ethylthio)-6-(3,5-dimethylbenzyl)uracil] are 210 to 214 °C, 0.59 µM and 5.07 µM.
Consider `Cc1ccnc2c1NC(=O)c1cccnc1N2C1CC1` [nevirapine, reference compound], for which the EC50 in the series with HIV-1SF33 amounted to 0.19 µM.
On to `Cc1cc(C)cc(Cc2nc(SCCc3ccc([N+](=O)[O-])cc3)[nH]c(=O)c2I)c1` [8n, 2-(4-Nitrophenethylthio)-5-iodine-6-(3,5-dimethylbenzyl)uracil], for which the melting point lay within 220 to 221 °C. At HIV-1 RT, the “fold more active compared to nevirapine (HIV-1 RT IC50)” value was “about 10 fold” and the midpoint of inhibition, the IC50, lay at 0.7 µM. Besides, the EC50 in the series with HIV-1SF33 is 3.84 µM.
Take `N#Cc1ccc(CSc2nc(Cc3ccccc3)c(I)c(=O)[nH]2)cc1` [8d, 2-(4-Cyanobenzylthio)-5-iodine-6-benzyluracil]: the melting point lay in the range of 223 to 226 °C. At HIV-1 RT, this compound registered an IC50 of 10.6 µM.
On the same counts, the results for `CC(=O)c1ccc(CSc2nc(Cc3cc(F)cc(F)c3)c(I)c(=O)[nH]2)cc1` [8i, 2-(4-Acetylbenzylthio)-5-iodine-6-(3,5-difluorobenzyl)uracil] are 205 to 206 °C and 4.03 µM.
The compound `O=c1cc(Cc2ccccc2)nc(SCCOc2ccc([N+](=O)[O-])cc2)[nH]1` [7p, 2-(2-(4-Nitrophenoxy)ethylthio)-6-benzyluracil] came in with a melting point of 212 to 213 °C. In addition, the IC50 at HIV-1 RT came out at 4.58 µM.
In the same order, the values of `O=c1[nH]c(SCCCOc2ccccc2)nc(Cc2cc(F)cc(F)c2)c1I` [8u, 2-(Phenoxypropylthio)-5-iodine-6-(3,5-difluorobenzyl)uracil] are 156 to 158 °C and 18 µM.
